According to patent US20040171688A1, “Carboxylic acids and derivatives thereof and pharmaceutical compositions containing them” (priority 1997, published 2004):

What was measured:
HNF-4α [1] = target: T1, HNF-4α (Rattus norvegicus, UniProt P22449); assay: Ligand binding assay with [3H]palmitoyl(16:0)-CoA on recombinant GST-HNF-4α(LBD) or His-HNF-4α; details: for EC50: competition with 8 nM [3H]palmitoyl(16:0)-CoA, read-out: EC50 (50% specific competition)
T1 construct: GST-HNF-4α(LBD) fusion protein consisting of amino acids 96-455 of wild type HNF-4α fused to GST; fused on or other part: Glutathione-S-transferase (GST) at the N-terminus of the LBD construct; 6-histidine tag on the full-length construct
T1 sequence (P22449 105-464 isoform P22449-2 limits assumed): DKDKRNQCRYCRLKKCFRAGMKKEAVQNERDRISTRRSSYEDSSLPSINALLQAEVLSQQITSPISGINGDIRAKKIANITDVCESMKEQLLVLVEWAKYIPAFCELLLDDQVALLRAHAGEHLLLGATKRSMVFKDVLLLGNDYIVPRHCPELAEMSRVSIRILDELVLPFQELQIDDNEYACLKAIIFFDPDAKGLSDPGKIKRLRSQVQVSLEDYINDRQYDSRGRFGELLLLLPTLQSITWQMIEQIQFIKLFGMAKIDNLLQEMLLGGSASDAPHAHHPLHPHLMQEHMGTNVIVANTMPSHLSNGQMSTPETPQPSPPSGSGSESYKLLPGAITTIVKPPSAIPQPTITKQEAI
Experimental: a. […] The respective recombinant proteins are incubated to equilibrium with [^3H]palmitoyl(16:0)-CoA (0.05 μCi) and with increasing nonlabeled palmitoyl(16:0)-CoA as indicated.
b. […] The respective recombinant proteins are incubated with 8 nM of [^3H]palmitoyl(16:0)-CoA (60 Ci/mmol) and with increasing nonlabeled myristoyl(14:0)-CoA as indicated. Percent bound refers to radiolabeled [^3H]palmitoyl(16:0)-CoA in the bound fraction. […] Percent bound refers to radiolabeled [^3H]palmitoyl(16:0)-CoA in the bound fraction.
Rat HNF-4α1 cDNA(pLEN4S)^1 was subcloned into the glutathione-S-transferase (GST) encoding pGEX-2T plasmid (Pharmacia) and the resultant plasmid was cleaved with smaI and AccI and religated to yield the GST-HNF-4α(LBD) fusion plasmid. […] The full length HNF-4α1 cDNA cloned into 6His-pET11d vector was expressed in E.coli BL21 (DE3)plysS.
Recombinant GST-HNF-4α(LBD) (100 pmol) or His-HNF-4α (100 pmol) were incubated for 60 min at 22° C. with [^3H]palmitoyl(16:0)-CoA (American RadiolabeledChemicals) in 100 μl of 10 mM phosphate buffer (pH 7.4). Competitor ligands or solvent carrier were added as indicated. Free and HNF-4α bound ^3[H]palmitoyl(16:0)-CoA were separated by […] and bound ligand was quantified by liquid scintillation counting. Nonspecific binding of [^3H]palmitoyl(16:0)-CoA was determined by its binding to the GST moiety or to carbonic anhydrase as nonrelevant protein.
Binding was exemplified with either the ligand binding domain of HNF-4α fused to glutathione-s-transferase (GST-HNF-4α(LBD)) or the full length HNF-4α protein tagged by 6 histidines (His-HNF-4α).

HNF-4α [2] = target: T2, HNF-4α (Rattus norvegicus, UniProt P22449); assay: Gel mobility shift assay: His-HNF-4α binding to C3P apo CIII promoter oligonucleotide; assay type: biochemical; set-up: The full length HNF-4α1 cDNA cloned into 6His-pET11d vector was expressed in E.coli BL21 (DE3)plysS; 6His; made in house; host or cells: E. coli BL21 (DE3)plysS; details: for direct effect on HNF-4α (summary): summary statement of Example 4
T2 sequence (P22449 1-464 isoform P22449-2): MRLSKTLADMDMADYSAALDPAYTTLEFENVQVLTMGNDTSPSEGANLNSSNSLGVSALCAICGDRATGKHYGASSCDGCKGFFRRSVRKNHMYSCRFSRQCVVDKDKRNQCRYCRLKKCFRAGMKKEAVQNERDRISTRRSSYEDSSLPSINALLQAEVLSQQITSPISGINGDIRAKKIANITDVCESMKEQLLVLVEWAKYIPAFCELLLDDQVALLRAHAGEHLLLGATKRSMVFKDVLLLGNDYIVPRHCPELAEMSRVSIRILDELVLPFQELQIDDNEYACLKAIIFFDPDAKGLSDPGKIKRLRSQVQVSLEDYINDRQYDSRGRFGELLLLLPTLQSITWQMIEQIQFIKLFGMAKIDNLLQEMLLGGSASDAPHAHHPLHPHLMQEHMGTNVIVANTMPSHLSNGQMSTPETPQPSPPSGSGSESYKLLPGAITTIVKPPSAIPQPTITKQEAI
Experimental: a. His-HNF-4I (14 ng) binding to C3P in the absence (lane 1) or presence of 10 μM each of myristoyl(14:0)-CoA (lane 2) or palmitoyl(16:0)-CoA (lane 3).
b. His-HNF-4I (20 ng) binding to C3P in the absence (lane 1) or presence of 10 μM each of stearoyl(18:0)-CoA (lane 2) or linolenoyl(18:3, w-3)-CoA (lane 3).
c. Activation of His-HNF-4I (14 ng) binding to C3P by increasing concentrations of myristoyl(14:0)-CoA. The gel section containing radiolabeled C3P bound to His-HNF-4I dimer is shown.
His-HNF-4α and acyl-CoA (as indicated) were preincubated for 30 min at 22° C. in 11 mM Hepes (pH 7.9) containing 50 mM KCl, 1 mM dithiothreitol. 2.5 mM MgCl2, 10% glycerol, 1 μg of poly(dI-dC) in a final volume of 20 μl. ^32P-labeled oligonucleotide (0.1 ng) consisting of the human C3P apo CIII promoter sequence,(−87/−66)^6 was then added, and incubation was continued for an additional 15 min. Protein-DNA complexes were resolved by 5% nondenaturing polyacrylamide gel in 0.6×TBE and quantitated by PhosphorImager analysis.
HNF-4α activity as a function of binding of long chain acyl-CoAs was evaluated by studying the binding of HNF-4α to its cognate C3P element of the apo CIII promoter sequence (−87/−66)^6 in the presence or absence of added acyl-CoAs of variable chain length, degree of saturation, and degree of substitution. Binding was verified by using a gel mobility shift assay. […] Activation was concentration dependent and maximal in the presence of myristoyl(14:0)-CoA added within a concentration range required for its binding to HNF-4α.

HNF-4α [3] = target: T2, HNF-4α; assay: In vitro transcription assay induced by His-HNF-4α with HeLa nuclear extract; assay type: biochemical; set-up: The full length HNF-4α1 cDNA cloned into 6His-pET11d vector was expressed in E.coli BL21 (DE3)plysS; 6His; made in house; host or cells: E. coli BL21 (DE3)plysS
Experimental: a. Representative experiments showing in vitro transcription of the test template in the presence of increasing concentrations of His-HNF-4I and in the absence (lanes 1-3, 7-9) or presence of 10 μM of added palmitoyl(16:0)-CoA (lanes 4-6) or stearoyl(18:0)-CoA (lanes 10,11) as indicated. Correctly initiated transcripts of the test and control templates are denoted by (→) and ? , respectively.
b. HNF-4I-induced in vitro transcription in the absence (empty bars) or presence of 10 μM each of added palmitoyl(16:0)-CoA (filled bars) or stearoyl(18:0)-CoA (hatched bars). Fold transcription indicates the ratio of specific transcript produced by the test template over transcript from the control template normalized to the ratio observed without HNF-4a. The figure summarizes 5 independent experiments for each acyl-CoA. *-Significant as compared with the respective value in the absence of added ligand.
Reaction mixture contained 20 mM Hepes-KOH (pH 7.9), 5 mM MgCl2, 60 mM KCl, 8% glycerol, 2 mM DTT, 1 mM 3′-O-methyl-GTP, 10 units of T1RNase, 20 units of RNasin, 0.5 μg sonicated salmon sperm DNA and His-HNF-4α and test ligand as indicated. The mixture was preincubated for 30 min at 22° C. followed by adding 10 ng of pAdML200 control template consisting of the adenovirus major-late promoter (−400/+10) linked to a 200 bp G-less cassette and 200 ng of the test template consisting of three C3P copies of the apo CIII promoter sequence (−87/−66) upstream to a synthetic ovalbumin TATA box promoter in front of a 377 bp-G-less cassette. The mixture was further preincubated for 10 min at 22° C. followed by adding 40 μg of HeLa nuclear extract with additional preincubation for 30 min at 30° C. 0.5-mM ATP, 0.5 mM CTP, 25 μM UTP, and 10 μCi of [α-^32P]UTP (s.a. […], Amersham) were then added and the complete reaction mixture was incubated for 45 min at 30° C. in a final volume of 25 μl. The reaction was terminated by adding 175 μl of stop mix (0.1 M sodium acetate (pH 5.2), 10 mM EDTA, 0.1% SDS, 200 μg/ml tRNA) followed by phenol extraction and ethanol precipitation. RNA was resuspended in sample buffer containing 80% formamide and 10 mM Tris-HCl (pH 7.4) and separated on 5% polyacrylamide gel containing 7 M urea in TBE. Correctly initiated transcripts were quantitated by PhosphorImager analysis. The test DNA template was constructed by inserting into pC2AT19 plasmid a PCR-amplified oligonucleotide prepared by using the (C3P)3-TK-CAT plasmid as template and consisting of three copies of the C3P element of the Apo CIII promoter sequence (−87/−66) having an ECoRI and SSTI sites at the 5′ and 3′ ends, respectively. The resultant plasmid was cleaved with sphI and sacI and ligated to a synthetic oligonucleotide (5′-CGAGGTCCAC-[…]-3′) containing sequences of the HSV thymidine kinase promoter (−41/−29) and of the chicken ovalbumin promoter (−33/−21).
The effect of agonistic and antagonistic HNF-4α-ligands was further evaluated by analyzing the in vitro transcription rate, catalyzed by added HeLa nuclear extract and induced by recombinant HNF-4α, of a test template consisting of a 377 bp G-less cassette promoted by sequences of the HSV thymidine kinase and chicken ovalbumin promoters and enhanced by three C3P copies of the apo Clil gene promoter. Transcriptional activation by HNF-4α was evaluated in the presence and in the absence of added representative long chain fatty acyl-CoAs. […]

EC50 (HNF-4α [1]; GST-HNF-4α(LBD) or His-HNF-4α) [nM]	direct effect on HNF-4α (summary) (HNF-4α [2])	effect on His-HNF-4α binding to C3P oligonucleotide (HNF-4α [2]; gel mobility shift, 10 μM acyl-CoA (FIG. 2))	maximal binding (HNF-4α [1]; Scatchard analysis)	binding ratio at saturation (HNF-4α [1]; at saturation (FIG. 1A))	Kd (HNF-4α [1]; saturation binding of [3H]palmitoyl(16:0)-CoA, Scatchard analysis, GST-HNF-4α(LBD) or His-HNF-4α, read-out: dissociation constant (Kd)) [nM]	effect on HNF-4α induced in vitro transcription (HNF-4α [3]; 10 μM added acyl-CoA (FIG. 3))	HNF-4α transcriptional activity, agonist/antagonist character (summary) (HNF-4α [3]; summary statement of Example 4)	Structure (SMILES)
1600	direct inhibition							CC/C=C\C/C=C\C/C=C\C/C=C\C/C=C\C/C=C\CCC(=O)SCCNC(=O)CCNC(=O)[C@H](O)C(C)(C)COP(=O)(O)OP(=O)(O)OC[C@H]1O[C@@H](n2cnc3c(N)ncnc32)[C@H](O)[C@@H]1OP(=O)(O)O [Docosahexaenoyl(22:6)-CoA]
600	direct inhibition							CC/C=C\C/C=C\C/C=C\C/C=C\C/C=C\CCCC(=O)SCCNC(=O)CCNC(=O)[C@H](O)C(C)(C)COP(=O)(O)OP(=O)(O)OC[C@H]1O[C@@H](n2cnc3c(N)ncnc32)[C@H](O)[C@@H]1OP(=O)(O)O [Eicosapentaenoyl(20:5)-CoA]
	direct inhibition	potent inhibition						CC/C=C\C/C=C\C/C=C\CCCCCCCC(=O)SCCNC(=O)CCNC(=O)[C@H](O)C(C)(C)COP(=O)(O)OP(=O)(O)OC[C@H]1O[C@@H](n2cnc3c(N)ncnc32)[C@H](O)[C@@H]1OP(=O)(O)O [Linolenoyl(18:3)-CoA]
2600			1 mol palmitoyl(16:0)-CoA/mol HNF-4I	~1 mole of fatty acyl-CoA/mole of HNF-4α	2600	activated	activators	CCCCCCCCCCCCCCCC(=O)SCCNC(=O)CCNC(=O)[C@H](O)C(C)(C)COP(=O)(O)OP(=O)(O)OC[C@H]1O[C@@H](n2cnc3c(N)ncnc32)[C@H](O)[C@@H]1OP(=O)(O)O [Palmitoyl(16:0)-CoA, reference compound]
